According to patent US9783536B2, “Nitrogen-containing heterocyclic compound or salt thereof” (FUJIFILM Corporation, priority 2013, dated 2017):

What was measured:
Assay type in all cases: biochemical
human PI3Kα protein = target: T1, human PI3Kα protein (Homo sapiens, UniProt P42336); experiment: PI3Kα enzyme assay (ADP-Glo); conditions: read-out: PI3Kα enzyme inhibitory activity
T1 construct: purchased Carna Biosciences, Inc; host or cells: baculovirus expression system
Outline: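 Biotinylated human PI3Kα (baculovirus-expressed, 4.5 nmol/L) pre-incubated 15 min with compound in Tris-HCl pH 7.5, MgCl2, BSA; reaction 60 min at 25° C with 50 μmol/L PIP2 and 100 μmol/L ATP final. ADP quantified by ADP-Glo luminescence; IC50 calculated.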

[1] = target: T2, GST fusion human ERK2 protein (Homo sapiens, UniProt P28482); experiment: ERK2 enzyme assay (1); conditions: ERK2 enzyme assay (1); read-out: ERK2 enzyme inhibitory activity (1)
T2 construct: purchased Carna Biosciences, Inc; host or cells: E. coli expression system
Outline: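 IC50 derived from the proportion of phosphorylated 5-FAM peptide, separated from unphosphorylated peptide by microfluidic mobility shift. Compound was first preincubated 15 min at room temperature with 2.5 nmol/L kinase at pH 7.5, then 43.1 μmol/L ATP plus 4.25 μmol/L substrate reacted 120 min at 25 °C.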

[2] = target: T2, GST fusion human ERK2 protein; experiment: ERK2 enzyme assay (2); conditions: ERK2 enzyme assay (2); read-out: ERK2 enzyme inhibitory activity (2)
Outline: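 IC50 values come from mobility-shift measurement of phosphorylated versus unphosphorylated 5-FAM peptide substrate after EDTA quench. Beforehand, compound and 1.25 nmol/L E. coli-expressed GST–human ERK2 stood 15 min at room temperature (pH 7.5), then 1 mmol/L ATP and 4.25 μmol/L substrate (final) were added for 120 min at 25 °C.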

T1 sequence (P42336 whole entry): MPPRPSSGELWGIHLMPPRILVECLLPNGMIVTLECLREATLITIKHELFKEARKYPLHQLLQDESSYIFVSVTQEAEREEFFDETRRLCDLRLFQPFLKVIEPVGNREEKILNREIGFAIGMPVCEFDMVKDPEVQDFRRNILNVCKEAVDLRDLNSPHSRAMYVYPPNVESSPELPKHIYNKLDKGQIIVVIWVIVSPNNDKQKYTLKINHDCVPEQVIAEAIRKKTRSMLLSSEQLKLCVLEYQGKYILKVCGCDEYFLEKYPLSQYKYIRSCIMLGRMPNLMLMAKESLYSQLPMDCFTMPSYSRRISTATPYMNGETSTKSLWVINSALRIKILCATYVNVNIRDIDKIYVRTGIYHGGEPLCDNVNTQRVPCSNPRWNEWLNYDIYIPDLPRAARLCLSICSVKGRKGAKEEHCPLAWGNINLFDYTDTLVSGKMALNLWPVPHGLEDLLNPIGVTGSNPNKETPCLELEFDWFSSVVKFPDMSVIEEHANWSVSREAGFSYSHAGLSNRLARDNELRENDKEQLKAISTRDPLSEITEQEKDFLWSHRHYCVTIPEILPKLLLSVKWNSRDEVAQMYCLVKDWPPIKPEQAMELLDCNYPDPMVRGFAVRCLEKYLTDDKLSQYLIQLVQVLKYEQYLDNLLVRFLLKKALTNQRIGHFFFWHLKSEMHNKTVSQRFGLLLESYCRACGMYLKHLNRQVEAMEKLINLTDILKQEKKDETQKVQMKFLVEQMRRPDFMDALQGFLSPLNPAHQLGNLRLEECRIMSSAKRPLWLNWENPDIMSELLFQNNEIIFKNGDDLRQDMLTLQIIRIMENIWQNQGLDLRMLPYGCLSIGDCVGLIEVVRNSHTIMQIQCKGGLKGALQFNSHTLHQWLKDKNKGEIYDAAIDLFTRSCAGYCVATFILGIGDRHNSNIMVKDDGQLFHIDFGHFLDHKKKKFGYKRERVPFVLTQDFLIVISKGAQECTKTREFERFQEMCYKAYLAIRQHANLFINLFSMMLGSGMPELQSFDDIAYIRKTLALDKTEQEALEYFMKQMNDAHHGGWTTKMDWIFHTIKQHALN
T1 sequence (P27986 whole entry partner): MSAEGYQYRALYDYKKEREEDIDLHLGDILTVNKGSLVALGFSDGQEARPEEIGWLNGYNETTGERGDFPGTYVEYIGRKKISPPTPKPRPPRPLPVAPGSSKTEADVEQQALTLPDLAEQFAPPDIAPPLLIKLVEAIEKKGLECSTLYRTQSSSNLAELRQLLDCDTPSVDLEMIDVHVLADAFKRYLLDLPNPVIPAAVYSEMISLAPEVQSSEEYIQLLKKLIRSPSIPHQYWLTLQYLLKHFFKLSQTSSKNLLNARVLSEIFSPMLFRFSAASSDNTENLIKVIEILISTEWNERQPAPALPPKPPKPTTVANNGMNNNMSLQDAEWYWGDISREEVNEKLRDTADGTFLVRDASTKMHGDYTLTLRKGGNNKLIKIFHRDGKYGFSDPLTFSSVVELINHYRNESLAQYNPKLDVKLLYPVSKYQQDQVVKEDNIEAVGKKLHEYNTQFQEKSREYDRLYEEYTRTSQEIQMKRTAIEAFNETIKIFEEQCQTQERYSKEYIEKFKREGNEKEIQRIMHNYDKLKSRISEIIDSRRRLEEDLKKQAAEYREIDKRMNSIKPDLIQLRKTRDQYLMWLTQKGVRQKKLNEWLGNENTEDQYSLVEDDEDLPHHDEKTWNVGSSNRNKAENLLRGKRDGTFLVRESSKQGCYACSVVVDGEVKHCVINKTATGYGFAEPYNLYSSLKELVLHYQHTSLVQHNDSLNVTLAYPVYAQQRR
T2 sequence (P28482 whole entry, the tested form may be a part): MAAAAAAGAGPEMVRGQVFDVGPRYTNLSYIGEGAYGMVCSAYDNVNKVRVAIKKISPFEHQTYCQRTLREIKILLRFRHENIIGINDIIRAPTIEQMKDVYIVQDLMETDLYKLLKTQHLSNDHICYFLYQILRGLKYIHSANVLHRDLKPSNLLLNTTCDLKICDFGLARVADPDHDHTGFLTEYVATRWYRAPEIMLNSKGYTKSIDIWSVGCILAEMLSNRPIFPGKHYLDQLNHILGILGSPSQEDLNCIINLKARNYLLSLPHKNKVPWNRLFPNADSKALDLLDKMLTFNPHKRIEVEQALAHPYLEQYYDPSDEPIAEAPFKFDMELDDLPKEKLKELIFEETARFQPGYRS

| IC50 (human PI3Kα protein) | IC50 [1] | IC50 [2] | Compound |
| --- | --- | --- | --- |
| < 1000 nM | < 1000 nM | < 1000 nM | CN1CCC(n2cc(-c3cnc4ccc(Nc5nnc(C6CCCC6)s5)nc4c3)cn2)CC1 [Example 0318, 5-cyclopentyl-N-(7-(1-(1-methylpiperidin-4-yl)-1H-pyrazol-4-yl)-1,5-naphthyridin-2-yl)-1,3,4-thiadiazole-2-amine] |
| < 1000 nM | < 1000 nM | < 1000 nM | c1nc2ccc(Nc3nnc(C4CCCC4)s3)nc2cc1-c1cnn(CCCN2CCCC2)c1 [Example 0320] |
| 1000 to 10000 nM | < 1000 nM | < 1000 nM | C1=C(c2cnc3ccc(Nc4nnc(C5CCCC5)s4)nc3c2)CCOC1 [Example 0327] |
| < 1000 nM | < 1000 nM | < 1000 nM | OCCN1CCC(n2cc(-c3cnc4ccc(Nc5nnc(C6CCCC6)s5)nc4c3)cn2)CC1 [Example 0336, 2-(4-(4-(6-((5-cyclopentyl-1,3,4-thiadiazol-2-yl)amino)-1,5-naphthyridin-3-yl)-1H-pyrazol-1-yl)piperidin-1-yl)ethanol] |
| < 1000 nM | < 1000 nM | < 1000 nM | OCCCN1CCC(n2cc(-c3cnc4ccc(Nc5nnc(C6CCCC6)s5)nc4c3)cn2)CC1 [Example 0337, 3-(4-(4-(6-((5-Cyclopentyl-1,3,4-thiadiazol-2-yl)amino)-1,5-naphthyridin-3-yl)-1H-pyrazol-1-yl)piperidin-1-yl)propan-1-ol] |
| < 1000 nM | < 1000 nM | < 1000 nM | COCCCn1cc(-c2cnc3ccc(Nc4nnc(C5CCCC5)s4)nc3c2)cn1 [Example 0339, 5-cyclopentyl-N-(7-(1-(3-methoxypropyl)-1H-pyrazol-4-yl)-1,5-naphthyridin-2-yl)-1,3,4-thiadiazole-2-amine] |
| < 1000 nM | < 1000 nM | < 1000 nM | CNC(=O)CCn1cc(-c2cnc3ccc(Nc4nnc(C5CCCC5)s4)nc3c2)cn1 [Example 0342] |
| < 1000 nM | < 1000 nM | < 1000 nM | NC(=O)CCn1cc(-c2cnc3ccc(Nc4nnc(C5CCCC5)s4)nc3c2)cn1 [Example 0343] |
| < 1000 nM | < 1000 nM | < 1000 nM | c1nc2ccc(Nc3nnc(C4CCCC4)s3)nc2cc1-c1cnn(CCCN2CCCCC2)c1 [Example 0344, 5-cyclopentyl-N-(7-(1-(3-(piperidin-1-yl)propyl)-1H-pyrazol-4-yl)-1,5-naphthyridin-2-yl)-1,3,4-thiadiazole-2-amine] |
| < 1000 nM | < 1000 nM | < 1000 nM | c1nc2ccc(Nc3nnc(C4CCCC4)s3)nc2cc1-c1cnn(CCCN2CCC2)c1 [Example 0345] |
| < 1000 nM | < 1000 nM | < 1000 nM | F[C@H]1CCN(CCCn2cc(-c3cnc4ccc(Nc5nnc(C6CCCC6)s5)nc4c3)cn2)C1 [Example 0346] |
| 1000 to 10000 nM | < 1000 nM | < 1000 nM | Cn1cc(-c2cnc3ccc(Nc4nnc(C5CCCC5)s4)nc3c2Cl)cn1 [Example 0350, N-(8-chloro-7-(1-methyl-1H-pyrazol-4-yl)-1,5-naphthyridin-2-yl)-5-cyclopentyl-1,3,4-thiadiazole-2-amine] |
| < 1000 nM | < 1000 nM | < 1000 nM | F[C@@H]1CCN(CCCn2cc(-c3cnc4ccc(Nc5nnc(C6CCCC6)s5)nc4c3)cn2)C1 [Example 0351, (R)-5-cyclopentyl-N-(7-(1-(3-(3-fluoropyrrolidin-1-yl)propyl)-1H-pyrazol-4-yl)-1,5-naphthyridin-2-yl)-1,3,4-thiadiazole-2-amine] |
| < 1000 nM | < 1000 nM | < 1000 nM | FC1(F)CCN(CCCn2cc(-c3cnc4ccc(Nc5nnc(C6CCCC6)s5)nc4c3)cn2)CC1 [Example 0353] |
| < 1000 nM | < 1000 nM | < 1000 nM | FC1(F)CN(CCCn2cc(-c3cnc4ccc(Nc5nnc(C6CCCC6)s5)nc4c3)cn2)C1 [Example 0354] |
| < 1000 nM | < 1000 nM | < 1000 nM | OC(CN1CCCC1)Cn1cc(-c2cnc3ccc(Nc4nnc(C5CCCC5)s4)nc3c2)cn1 (stereo not drawn) [Example 0356, 1-(4-(6-((5-Cyclopentyl-1,3,4-thiadiazol-2-yl)amino)-1,5-naphthyridin-3-yl)-1H-pyrazol-1-yl)-3-(pyrrolidin-1-yl)propan-2-ol] |
| < 1000 nM | < 1000 nM | < 1000 nM | CCOc1c(-c2cnn(C)c2)cnc2ccc(Nc3nnc(C4CCCC4)s3)nc12 [Example 0358, 5-Cyclopentyl-N-(8-ethoxy-7-(1-methyl-1H-pyrazol-4-yl)-1,5-naphthyridin-2-yl)-1,3,4-thiadiazole-2-amine] |
| < 1000 nM | < 1000 nM | 1000 to 10000 nM | CC(C)Oc1c(-c2cnn(C)c2)cnc2ccc(Nc3nnc(C4CCCC4)s3)nc12 [Example 0359, 5-cyclopentyl-N-(8-isopropyloxy-7-(1-methyl-1H-pyrazol-4-yl)-1,5-naphthyridin-2-yl)-1,3,4-thiadiazole-2-amine] |
| < 1000 nM | < 1000 nM | < 1000 nM | Cc1c(-c2cnc3ccc(Nc4nnc(C(C)C)s4)nc3c2)cnn1CCCN1CCCC1 [Example 0360, 5-Isopropyl-N-(7-(5-methyl-1-(3-(pyrrolidin-1-yl)propyl)-1H-pyrazol-4-yl)-1,5-naphthyridin-2-yl)-1,3,4-thiadiazole-2-amine] |
| < 1000 nM | < 1000 nM | < 1000 nM | CCCc1nnc(Nc2ccc3ncc(-c4cnn(CCCN5CCCC5)c4)cc3n2)s1 [Example 0364] |
| < 1000 nM | < 1000 nM | < 1000 nM | CC(C)c1cnnc(Nc2ccc3ncc(-c4cnn(C5CCN(C)CC5)c4)cc3n2)c1 [Example 0370, N-(5-isopropylpyridazin-3-yl)-7-(1-(1-methylpiperidin-4-yl)-1H-pyrazol-4-yl)-1,5-naphthyridine-2-amine] |
| 1000 to 10000 nM | < 1000 nM | < 1000 nM | CC(C)c1cnnc(Nc2ccc3ncc(-c4cnn(CCCc5ccccc5)c4)cc3n2)c1 [Example 0372] |
| 1000 to 10000 nM | < 1000 nM | < 1000 nM | CNCc1nn(C)cc1-c1cnc2ccc(Nc3nnc(C(C)C)s3)nc2c1 [Example 0383, 5-isopropyl-N-(7-(1-methyl-3-((methylamino)methyl)-1H-pyrazol-4-yl)-1,5-naphthyridin-2-yl)-1,3,4-thiadiazole-2-amine] |
| < 1000 nM | < 1000 nM | < 1000 nM | c1nc2ccc(Nc3cc(N4CCCC4)cnn3)nc2cc1-c1cnn(CCCN2CCCC2)c1 [Example 0402, 7-(1-(3-(Pyrrolidin-1-yl)propyl)-1H-pyrazol-4-yl)-N-(5-(pyrrolidin-1-yl)pyridazin-3-yl)-1,5-naphthyridine-2-amine] |
| < 1000 nM | < 1000 nM | < 1000 nM | COCCn1cc(-c2cnc3ccc(Nc4cc(C(C)C)cnn4)nc3c2)cn1 [Example 0471, N-(5-isopropylpyridazin-3-yl)-7-(1-(2-methoxyethyl)-1H-pyrazol-4-yl)-1,5-naphthyridine-2-amine] |
| < 1000 nM | < 1000 nM | < 1000 nM | COCCCn1cc(-c2cnc3ccc(Nc4cc(C(C)C)cnn4)nc3c2)cn1 [Example 0472] |
| < 1000 nM | < 1000 nM | < 1000 nM | CC(C)c1cnnc(Nc2ccc3ncc(-c4cnn(C5CCOCC5)c4)cc3n2)c1 [Example 0475, N-(5-isopropylpyridazin-3-yl)-7-(1-(tetrahydro-2H-pyran-4-yl)-1H-pyrazol-4-yl)-1,5-naphthyridine-2-amine] |
| 1000 to 10000 nM | < 1000 nM | < 1000 nM | COc1cc(-c2cnc3ccc(Nc4cc(C(C)C)cnn4)nc3c2)ccn1 [Example 0588] |
| < 1000 nM | < 1000 nM | < 1000 nM | CC(C)c1cnnc(Nc2ccc3ncc(-c4ccnc(O)c4)cc3n2)c1 [Example 0589, 4-(6-((5-isopropylpyridazin-3-yl)amino)-1,5-naphthyridin-3-yl)pyridin-2-ol] |
